Assay results from ChEMBL document CHEMBL5236614, “Discovery of Potent and Selective Dual Leucine Zipper Kinase/Leucine Zipper-Bearing Kinase Inhibitors with Neuroprotective Properties in In Vitro and In Vivo Models of Amyotrophic Lateral Sclerosis” (J Med Chem, 2022).

Assay: Microsomal stability in human liver microsomes assessed as intrinsic clearance
Format: ADME, Microsome
Conditions: read-out: CLH

Compound | CLint scaled
Nc1ncc(-c2cc(C3CC3)cc(N3C[C@@H]4C[C@H]3CO4)n2)nc1OC(F)F | 0.954 L/h/kg
Nc1ncc(-c2cc(C3CC3)nc(N3C[C@@H]4C[C@H]3CO4)c2)nc1OC(F)F | 0.948 L/h/kg
